Reference: ChEMBL document CHEMBL1146422, “Isolation and structure of the human cancer cell growth inhibitory cyclodepsipeptide dolastatin 16” (1997)
In brackets after ≈: the same amount, converted by molar mass. *1 amine or outer side, *2 acyl side, *3 side chain or, on linkers, in order; H or OH if unused. Where a SMILES comes first, the peptide text is derived from it. [ ]: non-standard residue; d: D form. X1 = CC(Cc1ccccc1)C(N[*:1])C(=O)[*:2]; X2 = CC(C)C(N[*:1])C(C)C(=O)[*:2]; dNMeV = CN[C@@H](C(=O)O)C(C)C; dHiv = CC(C)[C@@H](O)C(=O)O; Lac = C[C@H](O)C(=O)O

Key:
Format in all cases: functional
NCI-H460 = test: Growth inhibition of human NCI-H460 cells
KM-20L2 = test: Growth inhibition of human KM20L2 cells
SF-295 = test: Growth inhibition of human SF295 cells
SK-MEL-5 = test: Growth inhibition of human SK-MEL-5 cells
MCF7 = test: Growth inhibition of human MCF7 cells
MDA-MB-435 = test: Growth inhibition of human MDA-MB-435 cells
MDA-N = test: Growth inhibition of human MDA-N cells

GI50 (NCI-H460): 0.96 ng/mL (≈ 1.09 nM) | GI50 (SK-MEL-5): 3.3 ng/mL (≈ 3.75 nM) | GI50 (MCF7): 47.9 nM | GI50 (MDA-MB-435): 34.7 nM
Compound: CC(C)C1NC(=O)[C@@H]2CCCN2C(=O)C(C(C)Cc2ccccc2)NC(=O)[C@@H]2CCCN2C(=O)[C@@H](C(C)C)N(C)C(=O)[C@@H](C(C)C)OC(=O)[C@@H]2CCCN2C(=O)[C@H](C)OC(=O)C1C (some centres not stated) [DOLASTATIN 16] (cyclo([Lac]P[dHiv][dNMeV]P[X1]P[X2]))
GI50 (KM-20L2): 1.2 ng/mL (≈ 1.37 nM) | GI50 (SF-295): 5.2 ng/mL (≈ 5.92 nM) | GI50 (MDA-N): 28.8 nM
